Counter-ions that a name gives are not always drawn. Like-named read-outs stand apart in the source and are kept apart here.
What was measured:
hβ2 adrenergic receptor = hβ2 adrenergic receptor (Homo sapiens (Human), UniProt P07550); assay: Assay for determining adrenergic receptor agonist potency (cAMP Flashplate, HEK-293 cells); assay type: cell-based; conditions: data rounded to nearest 1 nM
Experimental: The cell monolayer was lifted with 2 mM EDTA in PBS. Cells were pelleted by centrifugation at 1,000 rpm, and cell pellets were either stored frozen at −80° C. or membranes were prepared immediately for use. cAMP assays were performed in a radioimmunoassay format using the Flashplate Adenylyl Cyclase Activation Assay System with [^125I]-cAMP (NEN SMP004, PerkinElmer Life Sciences Inc., Boston, Mass.), according to the manufacturers instructions. […] Cells were rinsed with PBS and detached in dPBS (Dulbecco's Phosphate Buffered Saline, without CaCl2 and MgCl2) containing 2 mM EDTA or Trypsin-EDTA solution (0.05% trypsin/0.53 mM EDTA). After counting cells in Coulter cell counter, cells were pelleted by centrifugation at 1,000 rpm and re-suspended in stimulation buffer containing TBMX (PerkinElmer Kit) pre-warmed to room temperature to a concentration of 1.6×10^6 to 2.8×10^6 cells/mL. About 40,000 to 80,000 cells per well were used in this assay. […] Reactions were incubated for 10 min at 37° C. and stopped by adding 100 μL of cold detection buffer containing [^125I]-cAMP (NEN SMP004, PerkinElmer Life Sciences, Boston, Mass.). […] Data were analyzed by nonlinear regression analysis with the GraphPad Prism Software package (GraphPad Software, Inc., San Diego, Calif.) with the sigmoidal equation. The Cheng-Prusoff equation (Cheng Y, and Prusoff W H., Biochemical Pharmacology, 1973, 22, 23, 3099-108) was used to calculate the EC50 values.

hM3 muscarinic receptor = hM3 muscarinic receptor (Homo sapiens (Human), UniProt P20309); assay: Radioligand binding assay for muscarinic receptors ([3H]-NMS displacement, CHO cell membranes)
Chain of hM3 muscarinic receptor (P20309 whole entry): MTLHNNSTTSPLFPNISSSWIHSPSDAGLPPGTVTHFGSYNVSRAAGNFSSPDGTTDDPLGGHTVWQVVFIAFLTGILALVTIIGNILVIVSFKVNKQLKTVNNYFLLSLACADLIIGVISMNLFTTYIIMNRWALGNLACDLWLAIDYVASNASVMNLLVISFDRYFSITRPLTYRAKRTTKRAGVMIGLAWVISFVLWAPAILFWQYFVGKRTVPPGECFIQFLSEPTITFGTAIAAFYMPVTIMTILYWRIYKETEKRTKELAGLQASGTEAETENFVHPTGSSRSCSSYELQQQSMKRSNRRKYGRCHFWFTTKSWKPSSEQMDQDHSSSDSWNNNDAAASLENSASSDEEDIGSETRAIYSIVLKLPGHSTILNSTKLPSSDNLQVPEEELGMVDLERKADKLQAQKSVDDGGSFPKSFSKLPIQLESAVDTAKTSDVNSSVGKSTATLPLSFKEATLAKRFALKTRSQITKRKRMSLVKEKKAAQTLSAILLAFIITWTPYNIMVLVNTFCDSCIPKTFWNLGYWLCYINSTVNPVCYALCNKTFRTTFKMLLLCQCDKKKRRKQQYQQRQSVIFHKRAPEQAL
Experimental: The cells were grown in a 5% CO2, 37° C. incubator and lifted with 2 mM EDTA in dPBS. Cells were collected by 5 minute centrifugation at 650×g, and cell pellets were either stored frozen at −80° C. or membranes were prepared immediately for use. For membrane preparation, cell pellets were resuspended in lysis buffer and homogenized with a Polytron PT-2100 tissue disrupter (Kinematica AG; 20 seconds×2 bursts). Crude membranes were centrifuged at 40,000×g for 15 minutes at 4° C. The membrane pellet was then resuspended with re-suspension buffer and homogenized again with the Polytron tissue disrupter. The protein concentration of the membrane suspension was determined by the method described in Lowry et al., 1951, […], 193, 265. All membranes were stored frozen in aliquots at −80° C. or used immediately. […] The membranes were briefly homogenized using a Polytron tissue disruptor (10 seconds) prior to assay plate addition. […] The test compounds were initially dissolved to a concentration of 400 μM in dilution buffer and then serially diluted 5× with dilution buffer to final concentrations ranging from 10 μM to […]. The order of addition and volumes added to the assay plates were as follows: 25 μL radioligand, 25 μL diluted test compound, and 50 μL membranes. Assay plates were incubated for 6 hours at 37° C. […] Filter plates were rinsed three times with wash buffer (10 mM HEPES) to remove unbound radioactivity. The plates were then air-dried and 50 μL Microscint-20 liquid scintillation fluid (PerkinElmer, Inc.) were added to each well. The plates were then counted in a PerkinElmer Topcount liquid scintillation counter (PerkinElmer, Inc.). Binding data were analyzed by nonlinear regression analysis with the GraphPad Prism Software package (GraphPad Software, Inc., San Diego, Calif.) using the one-site competition model. […] These summary statistics were then converted back to K; values for data reporting.

[1] = system: MCh-induced bronchoconstriction; assay: Einthoven assay: bronchoprotection against methacholine (MCh)-induced bronchoconstriction; assay type: in vivo, rat; conditions: rat, 100 μg by inhalation, 24 h after administration; for inhibition in vivo at 0.1 mg: inhaled or nasal, read-out: Broncho. at 24 h
Experimental: This assay measures the ability of a test compound to provide bronchoprotection against methacholine (MCh)-induced bronchoconstriction in a rat. Male Sprague-Dawley rats (Harlan, Indianapolis, Ind.), weighing between 200 g and 350 g, were used for all studies. Test compound or vehicle (sterile deionized water) were dosed by inhalation (1H) over a 10 min period in a pie shaped inhalation chamber (R+S Molds, San Carlos, Calif.) using 5 mL of dosing solution. […] Rats were dosed with 100 μg of test compound unless otherwise indicated. At predetermined time points, rats were anesthetized with an intraperitoneal (IP) injection of 120 mg/kg inactin (thiobutabarbital). A supplemental dose (40 mg/kg, IP) was administered if the animal responded to physical stimuli (e.g. toe pinch). The surgical site was shaved and a 1-2 cm midline incision of the ventral aspect of the neck was made. The jugular vein was isolated and cannulated with a saline-filled polyethylene catheter (PE-50) to allow IV infusion of MCh. Trachea was dissected free and cannulated with a 14G needle (#NE-014, Small Parts, Miami Lakes, Fla.). After placement of the tracheal cannula, each rat was ventilated using a respirator (Model 683, Harvard Apparatus, Inc., MA) set at a stroke volume of 1 mL/100 g body weight (but not exceeding 2.5 mL volume) and a rate of 90 strokes per minute. A T-connector was placed along the respirator expiratory tubing to allow for measurement of changes in ventilation pressure (VP) using a Biopac transducer that was connected to a Biopac […]) pre-amplifier. Body temperature was maintained at 37° C. using a heating pad. Changes in VP were recorded using the Acknowledge Data Collection Software (Santa Barbara, Calif.). Baseline values were collected for at least 2.5 min. Rats were then challenged with non-cumulative intravenous (IV) infusions of 40 and 80 μg/kg MCh. MCh was infused intravenously for 2.5 minutes from a syringe pump (sp210iw, World Precision Instruments, Inc., Sarasota, Fla.) at a rate of 2 mL/kg/min, with a 2 minute interval between the two doses of MCh. Changes in ventilation pressure (cm H2O) in treated animals are expressed as % inhibition of MCh response relative to control animals. Other bronchoconstrictors, such as histamine and acetylcholine, can be used in place of MCh in this assay. Additionally, guinea pigs can be used instead of rats. […] Inhibition greater than or equal to 30 percent at 24 h is indicative of a long duration of action.

[2] = hM3 Muscarinic Receptor Binding, data rounded to nearest 0.1 nM

Chain of hβ2 adrenergic receptor (P07550 whole entry): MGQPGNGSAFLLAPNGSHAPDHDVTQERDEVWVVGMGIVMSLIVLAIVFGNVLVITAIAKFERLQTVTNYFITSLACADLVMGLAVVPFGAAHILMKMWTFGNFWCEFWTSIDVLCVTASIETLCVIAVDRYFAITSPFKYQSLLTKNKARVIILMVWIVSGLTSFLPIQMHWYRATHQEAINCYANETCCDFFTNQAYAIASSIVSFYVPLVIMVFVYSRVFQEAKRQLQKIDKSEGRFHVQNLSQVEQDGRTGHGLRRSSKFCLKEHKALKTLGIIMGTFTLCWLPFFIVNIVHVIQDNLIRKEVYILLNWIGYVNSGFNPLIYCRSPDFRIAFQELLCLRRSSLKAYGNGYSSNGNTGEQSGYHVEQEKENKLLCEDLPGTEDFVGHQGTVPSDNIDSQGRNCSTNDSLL

Row | SMILES | EC50 (hβ2 adrenergic receptor) [nM] | Ki (hM3 muscarinic receptor; [2]) [nM] | Broncho. at 24 h [1] | Ki (hM3 muscarinic receptor) [nM] | inhibition in vivo at 0.1 mg [1] [%]
1 | CN(C(=O)CCN1CCC(OC(=O)Nc2ccccc2-c2ccccc2)CC1)c1ccc(CNC(=O)Cc2cccc(CNC[C@H](O)c3ccc(O)c4[nH]c(=O)ccc34)c2)cc1 [Compound I-74] | 2 | 0.3 |  |  | 
2 | Cc1ccc(C(=O)Nc2ccc(CCNC[C@H](O)c3ccc(O)c4[nH]c(=O)ccc34)cc2)cc1N(C)C(=O)CCN1CCC(OC(=O)Nc2ccccc2-c2ccccc2)CC1 [Compound I-35] |  |  | Yes (Bronchoprotective effect present at 24 h, e.g., ≧30% inhibition of the MCh response at 24 h in the rat Einthoven assay (100 μg)) |  | 
3 | CN(C(=O)CCN1CCC(OC(=O)Nc2ccccc2-c2ccccc2)CC1)c1ccc(CNC(=O)Cc2ccc(CNC[C@H](O)c3ccc(O)c4[nH]c(=O)ccc34)cc2)cc1 [Compound I-75] | 2 |  |  | 0.2 | 
4 | COc1ccc(NC(=O)CCCN(C)C(=O)CCN2CCC(OC(=O)Nc3ccccc3-c3ccccc3)CC2)cc1CCNC[C@H](O)c1ccc(O)c2[nH]c(=O)ccc12 [Compound I-9] | 6 |  |  | 0.1 | 
5 | CN(CCCC(=O)Nc1ccc(CNC[C@H](O)c2ccc(O)c3[nH]c(=O)ccc23)cc1)C(=O)CCN1CCC(OC(=O)Nc2ccccc2-c2ccccc2)CC1 [Compound I-1, Biphenyl-2-ylcarbamic Acid 1-(2-{[3-(4-{[(R)-2-Hydroxy-2-(8-hydroxy-2-oxo-1,2-dihydroquinolin-5-yl)ethylamino]methyl}-phenylcarbamoyl)propyl]methylcarbamoyl}ethyl)piperidin-4-yl Ester Ditrifluoroacetic Acid Salt] | 3 | 0.1 |  |  | 
6 | CN(C(=O)CCN1CCC(OC(=O)Nc2ccccc2-c2ccccc2)CC1)c1cccc(C(=O)Nc2ccc(CNC[C@H](O)c3ccc(O)c4[nH]c(=O)ccc34)cc2)c1 [Compound I-25, Ditrifluoroacetic Acid] | 1 |  |  | 0.1 | 
7 | C[C@@H](Cc1cccc(CCC(=O)NCc2ccc(N(C)C(=O)CCN3CCC(OC(=O)Nc4ccccc4-c4ccccc4)CC3)cc2)c1)NC[C@H](O)c1ccc(O)c2[nH]c(=O)ccc12 [Compound I-93] | 11 |  |  | 0.8 | 
8 | CC(Cc1ccc(NC(=O)c2cccc(N(C)C(=O)CCN3CCC(OC(=O)Nc4ccccc4-c4ccccc4)CC3)c2)cc1)NC[C@H](O)c1ccc(O)c2[nH]c(=O)ccc12 (stereo partly drawn) [Compound I-40] |  |  |  |  | > 30
9 | C[C@@H](Cc1ccc(CCNC(=O)c2ccc(N(C)C(=O)CCN3CCC(OC(=O)Nc4ccccc4-c4ccccc4)CC3)cc2)cc1)NC[C@H](O)c1ccc(O)c2[nH]c(=O)ccc12 [Compound I-58] | 1 |  |  | 0.2 | 
10 | CC(Cc1cccc(CCNC(=O)Cc2ccc(N(C)C(=O)CCN3CCC(OC(=O)Nc4ccccc4-c4ccccc4)CC3)cc2)c1)NC[C@H](O)c1ccc(O)c2[nH]c(=O)ccc12 (stereo partly drawn) [Compound I-85] |  |  |  |  | > 30
11 | Cc1ccc(C(=O)NCc2ccc(CC(C)NC[C@H](O)c3ccc(O)c4[nH]c(=O)ccc34)cc2)cc1N(C)C(=O)CCN1CCC(OC(=O)Nc2ccccc2-c2ccccc2)CC1 (stereo partly drawn) [Compound I-47] | 3 | 0.2 |  |  | 
12 | Cc1ccc(CNC(=O)Cc2ccc(N(C)C(=O)CCN3CCC(OC(=O)Nc4ccccc4-c4ccccc4)CC3)cc2)cc1CC(C)NC[C@H](O)c1ccc(O)c2[nH]c(=O)ccc12 (stereo partly drawn) [Compound I-70] | 1 | 0.3 |  |  | 
13 | COc1ccc(CC(=O)Nc2cccc(N(C)C(=O)CCN3CCC(OC(=O)Nc4ccccc4-c4ccccc4)CC3)c2)cc1CC(C)NC[C@H](O)c1ccc(O)c2[nH]c(=O)ccc12 (stereo partly drawn) [Compound I-54] | 2 | 0.2 |  |  | 
14 | C[C@H](Cc1ccc(CCNC(=O)Cc2ccc(N(C)C(=O)CCN3CCC(OC(=O)Nc4ccccc4-c4ccccc4)CC3)cc2)cc1)NC[C@H](O)c1ccc(O)c2[nH]c(=O)ccc12 [Compound I-90] | 1 |  |  | 0.1 | 
15 | CN(C(=O)CCN1CCC(OC(=O)Nc2ccccc2-c2ccccc2)CC1)c1cccc(CC(=O)Nc2ccc(CNC[C@H](O)c3ccc(O)c4[nH]c(=O)ccc34)cc2)c1 [Compound I-59] | 3 |  |  | 0.1 | 
16 | CN(C(=O)CCN1CCC(OC(=O)Nc2ccccc2-c2ccccc2)CC1)c1ccc(CNC(=O)Cc2cccc(CCNC[C@H](O)c3ccc(O)c4[nH]c(=O)ccc34)c2)cc1 [Compound I-76] | 1 | 0.3 |  |  | 
17 | C[C@H](Cc1ccc(CCNC(=O)c2ccc(N(C)C(=O)CCN3CCC(OC(=O)Nc4ccccc4-c4ccccc4)CC3)cc2)cc1)NC[C@H](O)c1ccc(O)c2[nH]c(=O)ccc12 [Compound I-57] | 1 |  |  | 0.1 | 
18 | CC(Cc1cc(CC(=O)NCc2ccc(N(C)C(=O)CCN3CCC(OC(=O)Nc4ccccc4-c4ccccc4)CC3)cc2)ccc1F)NC[C@H](O)c1ccc(O)c2[nH]c(=O)ccc12 (stereo partly drawn) [Compound I-84] | 1 | 0.1 |  |  | 
19 | Cc1cc(NC(=O)Cc2cccc(N(C)C(=O)CCN3CCC(OC(=O)Nc4ccccc4-c4ccccc4)CC3)c2)c(C)cc1CNC[C@H](O)c1ccc(O)c2[nH]c(=O)ccc12 [Compound I-60] | 3 |  |  | 0.1 | 
20 | CN(C(=O)CCN1CCC(OC(=O)Nc2ccccc2-c2ccccc2)CC1)c1cccc(CC(=O)Nc2ccc(CCNC[C@H](O)c3ccc(O)c4[nH]c(=O)ccc34)cc2)c1 [Compound I-63] | 1 |  |  | 0.1 | 
21 | COc1ccc(CNC(=O)Cc2ccc(N(C)C(=O)CCN3CCC(OC(=O)Nc4ccccc4-c4ccccc4)CC3)cc2)cc1CC(C)NC[C@H](O)c1ccc(O)c2[nH]c(=O)ccc12 (stereo partly drawn) [Compound I-72] | 4 | 0.4 |  |  | 
22 | CN(C(=O)CCN1CCC(OC(=O)Nc2ccccc2-c2ccccc2)CC1)c1ccc(CNC(=O)CCc2cccc(CNC[C@H](O)c3ccc(O)c4[nH]c(=O)ccc34)c2)cc1 [Compound I-96] | 3 |  |  |  | 
23 | Cc1c(CNC(=O)Cc2ccc(N(C)C(=O)CCN3CCC(OC(=O)Nc4ccccc4-c4ccccc4)CC3)cc2)cccc1CC(C)NC[C@H](O)c1ccc(O)c2[nH]c(=O)ccc12 (stereo partly drawn) [Compound I-71] | 1 |  |  | 0.1 | 
